In US8404691B2, “Imidazothiazole derivatives having proline ring structure” (Daiichi Sankyo Company, Limited, priority 2009, dated 2013):

Columns and labels:
[1] = Metabolic stability test (microsomal metabolism); assay type: in vitro ADME; details: human liver microsomes, 37° C., 30 minutes after addition of NADP+; also: tested at 1.1 µM
Description: 100 μL of 100 mM phosphate buffer solution (pH 7.4) containing 3 μM test compound was added to 100 μL of reaction solution containing 100 mM phosphate buffer solution (pH 7.4), 30 mM glucose 6-phosphate, 10 mM MgCl2.6H2O, 3 units/mL glucose 6-phosphate 1-dehydrogenase, and 0.3 to 1.5 mgP/mL human liver microsomes and the mixture was incubated at 37° C. for 20 minutes. Then, 70 μL of 100 mM phosphate buffer solution (pH 7.4) containing 3 mM NADP+ was added and the mixture was further incubated at 37° C. for 30 minutes to conduct a microsomal metabolism test. The compound was quantified by the internal standard method using a quadrupole mass spectrometer connected to a high performance liquid chromatography apparatus. The metabolic stability (residual percentage of compound: MS %) was determined according to the following formula: MS(human)(%)=(peak area ratio of test compound after addition of NADP+ and incubation for 30 minutes)/(peak area ratio of test compound before addition of NADP+)×100.
(peak area ratio: peak area of test compound divided by that of internal standard substance)

[2] = tested on: human lung cancer-derived cell line NCI-H460 having wild-type p53; test: Cell growth inhibition assay (MTT); assay type: cell-based; details: 72 h, NCI-H460 cells, culturing 3 days, read-out: anti-cellular effect GI50 (50% growth inhibition concentration)
Description: A cell growth inhibition assay was conducted using human lung cancer-derived cell line NCI-H460 having wild-type p53.
NCI-H460 cells were suspended in a medium (RPMI1640 medium containing 10% fetal bovine serum) and the suspension was inoculated in an amount of 500 cells/150 μL/well to a 96-well multiwell plate. A test compound was dissolved in DMSO and this solution was diluted with medium to prepare a sample solution (DMSO concentration: 1% or lower). On the next day of inoculation, medium nonsupplemented with the test compound or the sample solution was added in an amount of 50 μL/well. The MTT assay was conducted immediately after the medium was added in an amount of 50 μL on the next day of cell inoculation, and after the sample solution or the medium was added to cells followed by culturing at 37° C. for 3 days in a 5% CO2 atmosphere. The MTT assay was conducted as shown below.
A 5 mg/mL MTT (3-(4,5-dimethylthiazol-2-yl)-2,5-diphenyltetrazolium bromide, Sigma-Aldrich Co., M-2128) solution was prepared using a phosphate buffer solution (Dulbecco's Phosphate-buffered Saline). This MTT solution was added in an amount of 20 μL/well. Then, the plate was cultured at 37° C. for 4 hours in a 5% CO2 atmosphere. The plate was centrifuged at 1200 rpm for 5 minutes and then the culture supernatant was removed by aspiration using a dispenser. DMSO was added in an amount of 150 μL/well to dissolve generated formazan. The plate was stirred using a plate mixer for uniform color development from each well. The absorbance of each well was measured under conditions of OD 540 nm and reference 660 nm using a plate reader (SpectraMax PLUS384, Molecular Devices, CA, USA).
The OD value measured on the day of adding the sample solution was defined as S. The OD value measured three days after addition of the sample solution was defined as T. The OD value measured three days after addition of the DMSO dilution was defined as C. T/C (%) was determined at each concentration according to the calculation formula shown below to prepare a dose response curve, from which 50% growth inhibition concentration (GI50 value) was calculated. T/C(%)=(T−S)/(C−S)×100

SMILES	MS (human) % (metabolic stability, residual percentage of compound) [1]	GI50 [2]
CC(C)C1=C(C(=O)N2C[C@H](F)C[C@H]2C(=O)N2CC3(CC3)NC[C@H]2C)SC2=N[C@@](C)(c3ccc(Cl)nc3)[C@@H](c3ccc(Cl)c(F)c3)N21 [Example 3, (6R)-7-[(4R)-1-{[(5R,6S)-5-(4-chloro-3-fluorophenyl)-6-(6-chloropyridin-3-yl)-3-isopropyl-6-methyl-5,6-dihydroimidazo[2,1-b][1,3]thiazol-2-yl]carbonyl}-4-fluoro-L-prolyl]-6-methyl-4,7-diazaspiro[2.5]octane]	68%	–
CC[C@H]1CNC2(CC2)CN1C(=O)[C@@H]1C[C@@H](F)CN1C(=O)C1=C(C(C)C)N2C(=N[C@@](C)(c3ccc(Cl)nc3)[C@H]2c2ccc(Cl)c(F)c2)S1 [Example 4, (6S)-7-[(4R)-1-{[(5R,6S)-5-(4-chloro-3-fluorophenyl)-6-(6-chloropyridin-3-yl)-3-isopropyl-6-methyl-5,6-dihydroimidazo[2,1-b][1,3]thiazol-2-yl]carbonyl}-4-fluoro-L-prolyl]-6-ethyl-4,7-diazaspiro[2.5]octane]	100%	–
CC[C@@H]1CNC2(CC2)CN1C(=O)[C@@H]1C[C@@H](F)CN1C(=O)C1=C(C(C)C)N2C(=N[C@@](C)(c3ccc(Cl)nc3)[C@H]2c2ccc(Cl)c(F)c2)S1 [Example 6, (6R)-7-[(4R)-1-{[(5R,6S)-5-(4-chloro-3-fluorophenyl)-6-(6-chloropyridin-3-yl)-3-isopropyl-6-methyl-5,6-dihydroimidazo[2,1-b][1,3]thiazol-2-yl]carbonyl}-4-fluoro-L-prolyl]-6-ethyl-4,7-diazaspiro[2.5]octane]	69%	–
CC(C)C1=C(C(=O)N2C[C@H](F)C[C@H]2C(=O)N2CC3(CC3)NC[C@@H]2C)SC2=N[C@@](C)(c3ccc(Cl)nc3)[C@@H](c3ccc(Cl)c(F)c3)N21 [Example 2, (6S)-7-[(4R)-1-{[(5R,6S)-5-(4-chloro-3-fluorophenyl)-6-(6-chloropyridin-3-yl)-3-isopropyl-6-methyl-5,6-dihydroimidazo[2,1-b][1,3]thiazol-2-yl]carbonyl}-4-fluoro-L-prolyl]-6-methyl-4,7-diazaspiro[2.5]octane]	100%	–

Continued, values first:

MS (human) % (metabolic stability, residual percentage of compound) [1]	GI50 [2]	SMILES
89%	< 400 nM	CC(C)C1=C(C(=O)N2C[C@H](F)C[C@H]2C(=O)N2CC3(CC3)NC[C@@H]2C)SC2=N[C@@](C)(c3ccc(Cl)cc3)[C@@H](c3ccc(Cl)c(F)c3)N21 [Example 24]
47%	< 400 nM	CC(C)C1=C(C(=O)N2C[C@H](F)C[C@H]2C(=O)N2CC3(CC3)NC[C@H]2C)SC2=N[C@@](C)(c3ccc(Cl)cc3)[C@@H](c3ccc(Cl)c(F)c3)N21 [Example 25]
